According to patent US20230417740A1, “TISSUE-MIMICKING HYDROGEL COMPOSITIONS FOR BIOFABRICATION” (Wake Forest University Health Sciences, priority 2014, published 2023):

Test system: bioprinted liver organoids
Format: cell-based
Conditions: 20 mM NAC with 10 mM APAP, general trend of the data

Question: With `CC(=O)N[C@@H](CS)C(=O)O` [NAC, N-acetyl-L-cysteine] as the compound, how does the “rescue of liver organoids from APAP insult” value read?
Answer: can be rescued
